# Reference: patent EP0420266A2, “Chromene or thiochromene derivatives, process for preparing the same, intermediate therefor, pharmaceutical compositions containing said derivatives and the use of said derivatives” (TANABE SEIYAKU CO., LTD., priority 1989, dated 1991)
# Molecular target: T1, HMG-CoA reductase (HMGR) (Rattus norvegicus, UniProt P51639)
# T1 construct: Microsomes prepared from liver of rats administered with cholestyramine; from tissue
# T1 sequence (P51639 1-887): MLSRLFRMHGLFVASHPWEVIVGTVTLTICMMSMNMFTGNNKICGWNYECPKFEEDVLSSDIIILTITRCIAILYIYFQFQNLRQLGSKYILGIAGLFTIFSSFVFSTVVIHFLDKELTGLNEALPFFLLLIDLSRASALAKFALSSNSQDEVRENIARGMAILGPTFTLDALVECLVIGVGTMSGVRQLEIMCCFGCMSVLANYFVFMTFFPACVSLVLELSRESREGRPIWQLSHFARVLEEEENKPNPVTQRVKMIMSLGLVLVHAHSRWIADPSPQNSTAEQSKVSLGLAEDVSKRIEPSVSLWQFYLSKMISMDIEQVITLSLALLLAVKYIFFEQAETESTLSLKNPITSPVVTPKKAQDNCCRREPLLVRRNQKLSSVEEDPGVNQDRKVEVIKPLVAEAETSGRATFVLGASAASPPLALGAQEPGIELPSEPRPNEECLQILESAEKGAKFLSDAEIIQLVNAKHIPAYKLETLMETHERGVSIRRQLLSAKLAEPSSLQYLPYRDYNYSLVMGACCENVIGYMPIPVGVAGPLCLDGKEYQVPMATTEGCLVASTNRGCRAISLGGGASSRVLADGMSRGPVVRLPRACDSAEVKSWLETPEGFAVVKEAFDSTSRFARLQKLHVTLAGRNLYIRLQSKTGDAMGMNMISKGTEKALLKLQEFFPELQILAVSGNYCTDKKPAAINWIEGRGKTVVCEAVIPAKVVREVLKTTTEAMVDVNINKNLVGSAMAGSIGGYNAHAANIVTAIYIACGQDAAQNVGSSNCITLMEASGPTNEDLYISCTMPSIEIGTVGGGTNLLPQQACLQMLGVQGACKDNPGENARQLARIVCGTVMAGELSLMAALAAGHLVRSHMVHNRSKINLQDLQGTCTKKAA
# Assay: Inhibitory activity against rat hepatic microsomal HMG-CoA reductase (HMGR)
# Format: biochemical
# Details: rat liver microsomes, ¹⁴C-HMG-CoA substrate, 10 minutes incubation
# Experimental: Experiment [Inhibitory Activity against Rat Hepatic Microsomal HMG-CoA reductase (HMGR)]
# HMGR activities of microsomes were measured in accordance with the method of N. L. Young et al., Methods in Enzymology, 71, 498 (1981).
# Microsomes prepared from liver of rats administered with cholestyramine were mixed with a solution of the compounds to be tested in dimethyl sulfoxide and ¹⁴C-HMG-CoA (substrate). After the mixture was incubated for 10 minutes, the reaction was quenched with 6N hydrochloric acid and the mixture was allowed to stand at 37°C for 15 minutes, followed by centrifugation. The supernatant was spotted on thin layer chromatography (TLC; Kieselgel 60F254 manufactured by Merck) and developed with toluene/acetone (1:1). The spot of ¹⁴C-mevalonolactone was collected and the amount of isotope was measured with a scintillation counter (Type 4640 TRI-CARB. manufactured by Paccard) to calculate an amount of the formed mevalonolactone. By comparing amounts of the formed mevalonolactone in the group treated with test compounds and the control group (without test compounds), HMGR activity inhibition rates of the test compounds were calculated.
HMGR Inhibition (%) (Conc. of Compounds 10⁻⁶ M),HMGR Inhibition (%) (Conc. of Compounds 10⁻⁷ M),SMILES
100,67,"CCC1(CC)Oc2ccccc2C(c2ccc(F)cc2)=C1/C=C/[C@@H](O)C[C@@H](O)CC(=O)[O-].[Na+] (relative stereo) [A, (3R*,5S*)-(E)-7-[4-(4-Fluorophenyl)-2,2-diethyl-2H-chromen-3-yl]-3,5-dihydroxy-6-heptenoic acid sodium salt]"
84,32,"CCC1(CC)Oc2ccccc2C(c2ccc(F)cc2)=C1/C=C/[C@H]1C[C@H](O)CC(=O)O1 (relative stereo) [B, Trans-(E)-6-[2-(4-(4-fluorophenyl)-2,2-diethyl-2H-chromen-3-yl)-1-ethenyl]-3,4,5,6-tetrahydro-4-hydroxy-2H-pyran-2-one]"
90,45,"CCC1(CC)Sc2ccccc2C(c2ccc(F)cc2)=C1/C=C/[C@@H](O)C[C@@H](O)CC(=O)[O-].[Na+] (relative stereo) [C, (+)-(3R*,5S*)-(E)-7-[4-(4-Fluorophenyl)-2,2-diethyl-2H-thiochromen-3-yl]-3,5-dihydroxy-6-heptenoic acid sodium salt]"
